In patent US5776901A, “Polypeptide analogues having growth hormone releasing activity” (Administrators of the Tulane Educational Fund, priority 1992, dated 1998):
Where “and” joins values, the source holds several entries; their conditions need not be identical. Identical values can stand only once.

Key:
[1] = tested on: serum growth hormone (GH); assay: In vivo GH release in pentobarbital anesthetized rats, i.v. injection; design: species or system rat; settings: sacrificed 10 min after injection, N = 6
Experimental: (§1) Immature female Sprague-Dawley rats were obtained from the Charles River Laboratories (Wilmington, Mass.). After arrival they were housed at 25° C. with a 14:10 hour light:dark cycle. Water and Purina rat chow were available ad libitum. Pups were kept with their mothers until 21 days of age.
(§2) Twenty-six day old rats, six rats per treatment group, were anesthetized interperitoneally with 50 mg/kg of pentobarbital 20 minutes prior to i.v. treatment with peptide. Normal saline with 0.1% gelatin was the vehicle for intravenous (i.v.) injections of the peptides. The anesthetized rats, weighing 55-65 grams, were injected i.v. with the quantity of growth hormone releasing compounds indicated in Table 3. Injection was made as a 0.1 mL solution into the jugular vein.
(§3) All animals were sacrificed by guillotine 10 minutes after the final test injection (see Table 3). Trunk blood for the determination of blood GH levels was collected following decapitation. After allowing the blood to clot, it was centrifuged and the serum was separated from the clot. Serum was kept frozen until the day of sampling for radioimmunoassay (RIA) determination of growth hormone levels according to the following procedure, as developed by the National Institute of Arthritis, Diabetes and Digestive and Kidney Diseases (NIADDK).
Reagents are generally added to the RIA analysis tubes at a single sitting, at refrigerator temperature (about 4° C.) in the following sequence:
(b) "cold" (i.e., non-radioactive) standard or unknown serum sample to be analyzed,
(c) radio-iodinated growth hormone antigen, and
(d) growth hormone antiserum.
Reagent addition is generally carried out so that there is achieved a final RIA tube dilution of about 1:30,000 (antiserum to total liquid volume; vol:vol).
(§4) The mixed reagents are then typically incubated at room temperature (about 25° C.) for about 24 hours prior to addition of a second antibody (e.g., goat or rabbit anti-monkey gamma globulin serum) which binds to and causes precipitation of the complexed growth hormone antiserum. Precipitated contents of the RIA tubes are then analyzed for the number of counts in a specified period of time in a gamma scintillation counter. A standard curve is prepared by plotting number of radioactive counts versus growth hormone (GH) level. GH levels of unknowns are then determined by reference to the standard curve.
(§5) Serum GH was measured by RIA with reagents provided by the National Hormone and Pituitary Program.
Serum levels in Table 3 are recorded in ng/mL in terms of the rat GH standard of 0.61 International Units/mg (IU/mg). Data is recorded as the mean +/- standard error of the mean (SEM). Statistical analysis was performed with Student's t-test. In Table 3 the results shown are the average of studies with six rats.
The procedure of Example 2 was repeated.

[2] = tested on: serum growth hormone (GH); assay: In vivo GH release in rats, subcutaneous injection, sacrifice at +15 minutes; design: species or system rat; settings: Table 7, sacrifice +15 minutes, N = 6
Experimental: as §1, §2, §3, §4, §5
The general procedure of Example 2 was followed except the peptides were injected subcutaneously rather than intravenously and the sacrifice time was +15 minutes rather than +10 minutes.

[3] = Table 5, total dose 0.10 μg i.v.
[4] = Table 5, total dose 0.30 μg i.v.
[5] = Table 5, total dose 1.00 μg i.v.
[6] = Table 5, total dose 3.00 μg i.v.
[7] = Table 6, total dose 0.30 μg i.v.
[8] = Table 6, total dose 1.00 μg i.v.

3Me-His-DβNal-Ala-Trp-DPhe-Lys-NH2
GH Released Serum GH ([1]; Table 5, total dose 0.03 μg i.v.): 122 ng/mL and 134 ng/mL | GH Released Serum GH [1, 3]: 185 ng/mL and 112 ng/mL and 159 ng/mL | GH Released Serum GH [1, 4]: 101 ng/mL and 78 ng/mL | GH Released Serum GH [1, 5]: 134 ng/mL

Tip-Ala-DβNal-Ala-Trp-DPhe-Lys-NH2
GH Released Serum GH [1, 3]: 168 ng/mL | GH Released Serum GH [1, 4]: 167 ng/mL | GH Released Serum GH [1, 5]: 152 ng/mL | GH Released Serum GH [1, 6]: 272 ng/mL

α,γABU-DβNal-Ala-Trp-DPhe-LysNH2
GH Released Serum GH ([1]; Table 6, total dose 0.03 μg i.v.): 621 ng/mL | GH Released Serum GH ([1]; Table 6, total dose 0.10 μg i.v.): 1230 ng/mL | GH Released Serum GH [1, 7]: 2385 ng/mL | GH Released Serum GH [1, 8]: 3011 ng/mL

γABU-DβNal-Ala-Phe-DPhe-Lys-NH2
GH Released Serum GH + SEM ([2]; total dose 1.00 μg s.c.): 1127 ± 110 ng/mL | GH Released Serum GH + SEM ([2]; total dose .03 μg s.c.): 197 ± 31 ng/mL | GH Released Serum GH + SEM ([2]; total dose .10 μg s.c.): 182 ± 20 ng/mL | GH Released Serum GH + SEM ([2]; total dose .30 μg s.c.): 524 ± 116 ng/mL

DAla-Tcc-Ala-Trp-DPhe-Lys-NH2
GH Released Serum GH [1, 4]: 149 ng/mL | GH Released Serum GH [1, 6]: 142 ng/mL

DAla-DμNal-Ala-Trp-LysNH2
GH Released Serum GH [1, 7]: 187 ng/mL | GH Released Serum GH [1, 8]: 257 ng/mL | GH Released Serum GH ([1]; Table 6, total dose 3.00 μg i.v.): 198 ng/mL | GH Released Serum GH ([1]; Table 6, total dose 10.00 μg i.v.): 193 ng/mL | GH Released Serum GH ([1]; Table 6, total dose 30.00 μg i.v.): 236 ng/mL

αγABU-DβNal-Ala-Phe-DPhe-Lys-NH2
GH Released Serum GH + SEM ([2]; total dose 1.00 μg s.c.): 1441 ± 203 ng/mL | GH Released Serum GH + SEM ([2]; total dose .03 μg s.c.): 192 ± 29 ng/mL | GH Released Serum GH + SEM ([2]; total dose .10 μg s.c.): 288 ± 62 ng/mL | GH Released Serum GH + SEM ([2]; total dose .30 μg s.c.): 461 ± 90 ng/mL
